Assay results from paper PMC10069031 (European Journal of Medical Research, 2023).

What was measured:
Type in all cases: in vivo, mouse
[1] = test system: CCL2; assay: CCL2 in blood, MC38 study; conditions: C57BL/6 mice with subcutaneous MC38 CRC tumors
Experimental: CCL2 was detected in plasma samples and tumor tissue using the U-Plex mouse MCP-1 ELISA Kit (Meso Scale Diagnostics) according to the manufacturer’s instructions. Measurements were performed at least in duplicate. For plasma, 12.5 µL was analyzed per animal.
(§1) Five analysis of variance (ANOVA) models were applied to analyze the log10-transformed values of the tumor weight in the CT26 study, the CCL2 levels in the tumor in the CT26 and MC38 studies, and the CCL2 levels in the PB in the CT26 and MC38 studies. The standard assumption of equal variances between treatment groups was applied for all endpoints, except for CCL2 levels in the tumor in the MC38 study, for which unequal variances between treatment groups were allowed. A negative binomial regression model was applied to evaluate percentages of CD115^hi and F4/80^hi cells within the CD45^+ cell population in PB and tumor tissue, respectively.
In vivo passaging was initiated by transplanting fragments of cryo-preserved MC38 tumors of early passages (<p5) subcutaneously into 6–8-week-old female C57BL/6 mice. Tumors were grown to a size of about 1000 mm^3, excised, cut into fragments edging approximately 2 mm, and used for further passaging in vivo for a maximum of 10 passages. Necrotic areas were removed. […]

[2] = test system: CCL2; assay: CCL2 in MC38 tumors; conditions: REG 5 and 10 mg/kg/day
Experimental: For tumors, snap-frozen tissue was subjected to cryogenic grinding using a Mixer Mill MM 400 and stainless steel beads (7 mm in diameter; Retsch) and subsequently lysed in Tris Lysis Buffer (Meso Scale Diagnostics). The lysates were centrifuged at 25,000 g at 4 °C for 10 min, protein concentrations were determined using the 660 nm protein assay kit (Pierce), and 2–20 μg of lysate was used for CCL2 analysis. CCL2 concentrations were related to the amounts of tumor tissue taken for the lysis procedure.
as §1
In vivo passaging was initiated by transplanting fragments of cryo-preserved MC38 tumors of early passages (<p5) subcutaneously into 6–8-week-old female C57BL/6 mice. […]

[3] = test system: CCL2; assay: CCL2 ELISA in plasma, CT26 study; conditions: steady-state analysis
Experimental: CT26 tumor cells were cultivated in RPMI 1640 with 2 mM L-glutamine (Gibco, Invitrogen GmbH) containing 10% fetal bovine serum (Gibco) at 37 °C and 5% CO2. Cell lines were maintained in culture for no longer than 6 months, and mycoplasma contamination was excluded by enzymatic test (MycoAlert, Lonza) prior to in vivo application. Tumor cells (2 × 10^6) were transplanted subcutaneously into 6- to 8-week-old female BALB/c mice. Control mice were subjected to sham surgery without tumor cell transplantation. Blood and tumor samples were collected from untreated control and tumor-bearing mice on days 4 and 8 (n = 3 mice/group). […] Tumor diameter was measured by caliper and body weight was determined at least twice weekly. Tumor volume was calculated using the formula 0.5 × a × b^2, where a and b are the long and short diameters of the tumor, respectively.
For tissue collection, mice were killed at predetermined time points. […] Tumors were removed, and their weights determined, then divided into three pieces, one of which was snap-frozen, one formalin fixed and paraffin embedded, and one weighed and used for FC analyses.
CCL2 was detected in plasma samples and tumor tissue using the U-Plex mouse MCP-1 ELISA Kit (Meso Scale Diagnostics) according to the manufacturer’s instructions. […] For plasma, 12.5 µL was analyzed per animal. […]

[4] = PK of REG in plasma and CT26 tumor tissue; conditions: after the last dose, CT26 mice
Experimental: CT26 tumor cells were cultivated in RPMI 1640 with 2 mM L-glutamine (Gibco, Invitrogen GmbH) containing 10% fetal bovine serum (Gibco) at 37 °C and 5% CO2. Cell lines were maintained in culture for no longer than 6 months, and mycoplasma contamination was excluded by enzymatic test (MycoAlert, Lonza) prior to in vivo application. Tumor cells (2 × 10^6) were transplanted subcutaneously into 6- to 8-week-old female BALB/c mice. Control mice were subjected to sham surgery without tumor cell transplantation. Blood and tumor samples were collected from untreated control and tumor-bearing mice on days 4 and 8 (n = 3 mice/group). […] For interim analysis, blood and tumor tissue were collected from each group (n = 3 mice/group) after 7 days of treatment. For pharmacokinetic (PK)/pharmacodynamic (PD) relationship analysis, tissues were taken 24 h after the penultimate dose and 1, 3, 7, and 24 h after the ultimate dose. Tumor diameter was measured by caliper and body weight was determined at least twice weekly. Tumor volume was calculated using the formula 0.5 × a × b^2, where a and b are the long and short diameters of the tumor, respectively.
PK parameters, namely AUC(0–24)ss and Cmax, were calculated from plasma and tumor concentrations using a noncompartmental analysis.

[5] = test system: F4/80^hi population; assay: F4/80^hi cells in MC38 tumors; conditions: even at 5 mg/kg/day
Experimental: For tumors, single-cell suspensions were prepared from the fresh tumor pieces using a mouse Tumor Dissociation Kit (Miltenyi Biotec). The final cell pellets were resuspended in 1 mL FC buffer (PBS with 2 mM EDTA, 0.5% bovine serum albumin). Then, 100 µL of the tumor single-cell suspensions and the EDTA blood samples were stained by addition of the antibody cocktail and incubated for 10 min at 4 °C according to the manufacturer’s instructions. After antibody incubation, blood samples were incubated with 2–3 mL lysis buffer (0.17 M NH4Cl, 10 mM KHCO3, 0.1 mM EDTA) for 10–20 min at RT to lyse and remove red blood cells. Subsequently, samples were centrifuged at 300 g for 5 min at 4 °C and cells were washed with 2–3 mL FC buffer. Tumor samples were washed immediately after antibody incubation with 2–3 mL FC buffer without the lysis procedure and centrifuged at 300 g for 5 min at 4 °C. […] Next, 50 µL of blood and 70 µL of tumor cell suspensions were analyzed by FC using MACSQuant Analyzer 10 and MACSQuant Analyzer 16 (Miltenyi Biotec). FC data were analyzed with the FlowLogic software (Inivai Technologies distributed through Miltenyi Biotec; version 7.2.1) and gated as shown in Fig. S1 (see Additional file 2), whereby up to seven subpopulations were identified in the CD45^+ fraction using antibodies against F4/80 and CD115. […]

With `CNC(=O)c1cc(Oc2ccc(NC(=O)Nc3ccc(Cl)c(C(F)(F)F)c3)c(F)c2)ccn1` [REG, Regorafenib] the “CCL2 levels in blood” value [1] was “without affecting”, the “CCL2 concentrations in MC38 tumors” value [2] was “dose dependently increased” and the “CCL2 levels in plasma vs vehicle or untreated samples” value [3] was “did not change”. For the same molecule, the “time of highest concentration of REG (Cmax) in plasma” value [4] was ≤ 3 h and the “reduction of the F4/80^hi population vs vehicle” value [5] was “more than twofold”.
